Where two headings read alike, the source gives them in different places.
Legend:
Stromelysin [1] = molecular target: T1, Stromelysin (Homo sapiens, UniProt P08254); experiment: biochemical
Description: The latent pro-enzyme (30 µg/ml) was activated by incubation with trypsin (0.5 µg/ml) for 30 minutes at 25°C and then the trypsin was inactivated using a twenty-fold excess of trypsin inhibitor. The inhibitory activity of the hydroxamic acid derivatives was determined using the fluorescent peptide substrate (7-methoxycoumarin-4-yl)acetyl-L-prolyl-L-leucyl-L-alanyl-L-[…]-[3-(2,4-dinitrophenyl)-L-2,3-diaminopropyl]-L-arginyl-L-arginine. The stromelysin (final concentration 35 ng/ml) was added to a solution of substrate ([…]) and varying concentrations of hydroxylamine derivative in 50mM Tris HCl buffer, pH 7.5 containing 200 mM Na Cl, 10mM CaCl2, 0.05% Brij 35 and 5% methanol. This solution was incubated for 16 hours at 37°C. Product formation was determined by spectrofluorometry using an excitation wavelength of 325 nm and an emission wavelength of 395 nm. The IC50 is that concentration of hydroxylamine derivative which reduces the substrate cleavage to 50% of that achieved by the enzyme alone.

Stromelysin [2] = molecular target: T1, Stromelysin; experiment: Stromelysin (Test A), 14C-acetylated b-casein substrate digestion; format: biochemical; details: read-out: Test A IC50 (mol)
Description: Prostromelysin was purified from human fibroblast culture medium by prostromelysin antibody affinity chromatography [Ganja-Smith Z, Nagase H, Woessner J F Jr., Biochem J. 1989, vol 285 (1), pp 115-119]. The latent pro-enzyme was activated by incubation with trypsin (5 mg/ml) at 25°C for 2 hours and after this time the trypsin was inactivated using a ten-fold excess of soya bean trypsin inhibitor. The inhibitory activity of the aforementioned hydroxamic acid derivatives was determined using ^14C-acetylated b-casein substrate. The stromelysin (5 nM) was added to a solution of substrate (4 mg/ml) in 25 mM Tris HCl buffer, pH 7.5, containing 10 mM CaCl2 and 0.05% Brij®. The solution obtained was incubated at 37°C for 20 hours. Enzyme digestion of the substrate was terminated by the addition of 45% trichloroacetic acid and the precipitated undigested substrate was pelleted by centrifugation at 10000 g for 0.25 hour. The supernatant was aspired and ^14C activity was determined by liquid scintillation spectrometry. The IC50 is that concentration of hydroxamic acid derivative in the enzyme digestion which reduces the substrate cleavage to 50% of that achieved by the enzyme alone.

gelatinase B = gelatinase B (Homo sapiens, UniProt P14780); experiment: biochemical
Chain of gelatinase B (P14780 94-707): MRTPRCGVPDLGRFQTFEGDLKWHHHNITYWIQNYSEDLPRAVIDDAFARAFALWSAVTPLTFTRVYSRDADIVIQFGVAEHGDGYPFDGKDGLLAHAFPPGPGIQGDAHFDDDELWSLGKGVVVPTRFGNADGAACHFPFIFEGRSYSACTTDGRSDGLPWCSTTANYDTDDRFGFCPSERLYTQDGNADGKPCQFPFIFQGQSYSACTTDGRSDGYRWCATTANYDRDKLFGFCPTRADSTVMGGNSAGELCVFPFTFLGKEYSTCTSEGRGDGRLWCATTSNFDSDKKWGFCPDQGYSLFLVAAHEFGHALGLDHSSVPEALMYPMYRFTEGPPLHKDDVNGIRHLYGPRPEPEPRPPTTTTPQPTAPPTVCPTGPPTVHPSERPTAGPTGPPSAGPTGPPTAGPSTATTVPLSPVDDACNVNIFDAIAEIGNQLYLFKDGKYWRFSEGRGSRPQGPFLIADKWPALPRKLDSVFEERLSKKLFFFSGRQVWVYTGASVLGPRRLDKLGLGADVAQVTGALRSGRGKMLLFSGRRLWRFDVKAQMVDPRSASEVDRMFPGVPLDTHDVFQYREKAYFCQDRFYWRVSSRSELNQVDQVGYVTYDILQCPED
Description: Pro-gelatinase B was purified from human neutrophils by first separating the neutrophils from human blood by density centrifugation and dextran sedimentation. The separated neutrophils were disrupted by combined treatment with 0.05% Triton X-100® and sonification Cell debris was then removed by high speed centrifugation. […] The gelatinase B was incubated overnight at 37°C with 1mM p-aminophenylmercuric acetate. The inhibitory activity of the present hydroxamine derivatives was determined using the synthetic substrate N-acetyl-Pro-Gln-Gly-Leu-Leu-Gly ethyl ester for this enzyme. The gelatinase was added to a solution of 0.25 mM of substrate in 50mM borate buffer (pH 7.5) containing 1 mM calcium chloride and a known concentration of hydroxylamine derivative. The resulting solution was incubated at 37°C for 16 hours. Enzymic activity was terminated by addition of an equal volume of 2% (w/v) sodium hydrogen carbonate solution in 50% aqueous methanol containing 0.05% (w/v) of picrylsulphonic acid. The solution obtained was incubated at 37°C for a further 1 hour and the reaction was then terminated and stabilized by acidification with 1N hydrochloric acid. The concentration of trinitrophenyl-Leu-Leu-Gly ethyl ester formed was determined by spectrophotometry at 335 nm. The IC50 is that concentration of hydroxylamine derivative which reduces substrate cleavage to 50% of that achieved by the enzyme alone.

[3] = gelatinase B from human neutrophils, 0.25 mM substrate, pH 7.5, 37°C, 16 hours, * = IC50 limited by mutual depletion of the enzyme, read-out: Test C IC50 (mol)

T1 sequence (P08254 100-477): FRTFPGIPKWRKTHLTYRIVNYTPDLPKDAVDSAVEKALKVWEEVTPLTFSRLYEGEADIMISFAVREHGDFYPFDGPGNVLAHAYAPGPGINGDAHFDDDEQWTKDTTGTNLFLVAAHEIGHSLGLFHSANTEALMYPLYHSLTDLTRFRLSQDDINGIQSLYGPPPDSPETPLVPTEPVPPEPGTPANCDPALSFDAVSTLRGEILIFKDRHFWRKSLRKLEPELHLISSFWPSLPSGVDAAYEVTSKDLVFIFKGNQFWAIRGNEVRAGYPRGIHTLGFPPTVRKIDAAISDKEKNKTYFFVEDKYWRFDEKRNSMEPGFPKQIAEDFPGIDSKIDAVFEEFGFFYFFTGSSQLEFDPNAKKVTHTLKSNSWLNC

IC50 (Stromelysin [1]; stromelysin 35 ng/ml, fluorescent peptide substrate, pH 7.5, 37°C, 16 hours, * = IC50 limited by mutual depletion of the enzyme, read-out: Test B IC50 (mol)) [nM] | SMILES | IC50 (Stromelysin [1]) [nM] | IC50 (Stromelysin [2]) [nM] | IC50 (gelatinase B) [nM] | IC50 (gelatinase B; [3]) [nM]
– | CCCCCCC[C@@H](C(=O)N[C@@H](CC(C)C)C(=O)N[C@@H](CC(C)C)C(=O)NCC)C(CCCc1ccccc1)C(=O)NO (single isomer, unassigned) [Compound H, [4-(N-Hydroxyamino) 2(R)-heptyl-3(R or S)-(3-phenylpropyl)succinyl]-L-leucyl-L-leucine ethylamide] | 0.66 | – | – | –
– | CCCCCCCC(C(=O)N[C@@H](CC(C)C)C(=O)N[C@@H](CC(C)C)C(=O)NCC)[C@H](C)C(=O)NO (single isomer, unassigned) [Compound C, [4-(N-Hydroxyamino)-2(R or S)-heptyl-3(S)-methylsuccinyl]-L-leucyl-L-leucine ethylamide] | 2.3 | 11 | – | –
– | CCCCCCCCCC(CC(=O)NO)C(=O)N[C@@H](CC(C)C)C(=O)N[C@@H](CC(C)C)C(=O)NCC (single isomer, unassigned) [Compound B, [4-(N-Hydroxyamino)-2(R or S)-nonylsuccinyl]-L-leucyl-L-leucine ethylamide] | 9.3 | 26 | 50 | –
– | CCCCCCCC(CC(=O)NO)C(=O)N[C@@H](Cc1ccccc1)C(=O)NC (stereo partly drawn) [Compound F, [4-(N-Hydroxyamino)-2(RS)-heptylsuccinyl]-L-phenylalanine methylamide] | 22 | – | – | 3.2
1.2 | CCCCCCC[C@@H](C(=O)N[C@H](C(=O)NC)C(C)(C)C)C(CN1C(=O)c2ccccc2C1=O)C(=O)NO (single isomer, unassigned) [Compound G, [4-(N-Hydroxyamino)-2(R)-heptyl-3(R or S)-(phthalimidomethyl)succinyl]-L-tert-butylglycine methylamide] | – | – | – | 0.9
– | CCCCCCCC(CC(=O)NO)C(=O)N[C@@H](CC(C)C)C(=O)N[C@@H](CC(C)C)C(=O)NCC (single isomer, unassigned) [Compound A, [4-(N-Hydroxyamino)-2(R or S)-heptylsuccinyl]-L-leucyl-L-leucine ethylamide] | 12.5 | 33 | 320 | –
– | CCCCCCC[C@@H](C(=O)N[C@@H](CC(C)C)C(=O)N[C@@H](CC(C)C)C(=O)NCC)C(CN1C(=O)c2ccccc2C1=O)C(=O)NO (single isomer, unassigned) [Compound D, [4-(N-Hydroxyamino)-2(R)-heptyl-3(R or S)-(phthalimidomethyl)succinyl]-L-leucyl-L-leucine ethylamide] | 0.59 | 10 | – | –

Source: EP0575844B1, “Hydroxamic acid derivatives and pharmaceutical compositions thereof” (F. HOFFMANN-LA ROCHE AG, priority 1992, dated 1993)
